Measurements as given in US20180037595A1, “BENZOXABOROLE COMPOUNDS AND USES THEREOF” (GLAXOSMITHKLINE INTELLECTUAL PROPERTY (NO.2) LIMITED, priority 2015, published 2018).
≈ marks a conversion by molar mass, not a printed value. Read-outs that look alike come from different tables or passages of the source.

Assays:
[1] = tested on: M. tuberculosis standard strain Mtb H37Rv; experiment: MIC determination against mycobacteria (resazurin microtiter assay); format: cell-based, Mycobacterium tuberculosis; conditions: for Selectivity Index (A/B): HepG2 cell 48 h Tox50 (A) / Mtb H37Rv MIC (B); for MIC: Mycobacterium tuberculosis, H37RV, read-out: Mtb H37Rv MIC (B)
HepG2 cells = experiment: HepG2 cytotoxicity assay (resazurin); format: cell-based
Human cyto LeuRS = Human cyto LeuRS (Homo sapiens, UniProt Q9P2J5); experiment: LeuRS aminoacylation assay, IC50 determination; format: biochemical
Sequence of Human cyto LeuRS (Q9P2J5 whole entry): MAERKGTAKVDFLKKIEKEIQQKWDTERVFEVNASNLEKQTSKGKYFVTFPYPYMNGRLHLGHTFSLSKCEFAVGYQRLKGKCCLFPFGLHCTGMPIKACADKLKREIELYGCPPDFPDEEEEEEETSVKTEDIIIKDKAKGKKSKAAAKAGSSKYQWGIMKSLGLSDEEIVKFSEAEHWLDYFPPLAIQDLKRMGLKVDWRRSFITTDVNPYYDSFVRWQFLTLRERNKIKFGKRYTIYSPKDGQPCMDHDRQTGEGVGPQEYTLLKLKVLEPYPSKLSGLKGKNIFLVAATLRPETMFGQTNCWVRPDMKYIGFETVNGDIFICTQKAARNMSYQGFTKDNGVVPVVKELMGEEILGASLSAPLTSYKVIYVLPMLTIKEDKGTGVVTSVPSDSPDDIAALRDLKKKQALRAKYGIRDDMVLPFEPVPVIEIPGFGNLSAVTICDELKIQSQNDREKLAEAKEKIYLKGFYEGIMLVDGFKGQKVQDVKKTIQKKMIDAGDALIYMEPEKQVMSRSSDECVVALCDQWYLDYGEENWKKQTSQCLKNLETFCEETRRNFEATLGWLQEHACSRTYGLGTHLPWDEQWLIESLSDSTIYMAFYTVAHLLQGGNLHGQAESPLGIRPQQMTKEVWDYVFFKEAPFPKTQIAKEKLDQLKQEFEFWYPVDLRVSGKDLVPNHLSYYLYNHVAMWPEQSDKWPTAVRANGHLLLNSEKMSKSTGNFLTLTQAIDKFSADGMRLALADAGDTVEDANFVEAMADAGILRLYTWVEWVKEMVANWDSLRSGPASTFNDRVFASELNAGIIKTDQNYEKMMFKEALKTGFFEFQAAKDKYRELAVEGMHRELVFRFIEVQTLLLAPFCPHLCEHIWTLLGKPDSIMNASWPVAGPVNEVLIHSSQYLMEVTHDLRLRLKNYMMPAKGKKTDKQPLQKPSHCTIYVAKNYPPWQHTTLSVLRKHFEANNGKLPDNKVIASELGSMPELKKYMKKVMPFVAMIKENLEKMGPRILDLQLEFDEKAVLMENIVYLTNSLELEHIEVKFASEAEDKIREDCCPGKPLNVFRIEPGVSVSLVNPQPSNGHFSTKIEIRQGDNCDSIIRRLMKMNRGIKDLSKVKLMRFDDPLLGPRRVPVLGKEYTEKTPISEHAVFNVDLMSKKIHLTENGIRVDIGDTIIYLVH

Human mito LeuRS = target: T1, Human mito LeuRS (Homo sapiens, UniProt Q15031); experiment: LeuRS aminoacylation assay, IC50 determination; format: biochemical
T1 sequence (Q15031 1-903): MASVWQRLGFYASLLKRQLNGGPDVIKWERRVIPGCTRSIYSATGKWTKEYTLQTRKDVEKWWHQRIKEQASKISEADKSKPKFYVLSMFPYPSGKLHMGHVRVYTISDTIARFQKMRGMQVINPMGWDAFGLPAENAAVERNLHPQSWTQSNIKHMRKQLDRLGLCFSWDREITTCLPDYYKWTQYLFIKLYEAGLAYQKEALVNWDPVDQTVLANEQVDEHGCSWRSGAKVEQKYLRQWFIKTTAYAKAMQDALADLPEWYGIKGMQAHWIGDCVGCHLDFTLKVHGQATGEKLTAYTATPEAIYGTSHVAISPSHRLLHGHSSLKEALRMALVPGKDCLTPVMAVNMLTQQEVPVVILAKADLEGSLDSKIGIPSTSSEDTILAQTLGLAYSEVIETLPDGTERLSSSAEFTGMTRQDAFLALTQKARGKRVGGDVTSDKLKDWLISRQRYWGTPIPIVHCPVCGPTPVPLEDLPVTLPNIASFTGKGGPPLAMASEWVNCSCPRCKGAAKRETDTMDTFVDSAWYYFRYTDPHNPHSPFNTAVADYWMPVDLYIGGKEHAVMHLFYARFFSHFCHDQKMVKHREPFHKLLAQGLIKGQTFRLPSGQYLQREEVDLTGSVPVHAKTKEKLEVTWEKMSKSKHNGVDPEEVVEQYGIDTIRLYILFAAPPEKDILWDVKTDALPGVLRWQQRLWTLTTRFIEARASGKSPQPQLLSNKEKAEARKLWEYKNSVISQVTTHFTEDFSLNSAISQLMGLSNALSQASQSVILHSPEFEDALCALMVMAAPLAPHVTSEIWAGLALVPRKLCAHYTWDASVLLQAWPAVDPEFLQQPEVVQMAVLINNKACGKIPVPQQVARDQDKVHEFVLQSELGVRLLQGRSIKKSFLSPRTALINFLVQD

Mtb LeuRS = Mtb LeuRS (Mycobacterium tuberculosis, UniProt P9WFV1); experiment: LeuRS aminoacylation assay, IC50 determination; format: biochemical, M. tuberculosis
Sequence of Mtb LeuRS (P9WFV1 whole entry): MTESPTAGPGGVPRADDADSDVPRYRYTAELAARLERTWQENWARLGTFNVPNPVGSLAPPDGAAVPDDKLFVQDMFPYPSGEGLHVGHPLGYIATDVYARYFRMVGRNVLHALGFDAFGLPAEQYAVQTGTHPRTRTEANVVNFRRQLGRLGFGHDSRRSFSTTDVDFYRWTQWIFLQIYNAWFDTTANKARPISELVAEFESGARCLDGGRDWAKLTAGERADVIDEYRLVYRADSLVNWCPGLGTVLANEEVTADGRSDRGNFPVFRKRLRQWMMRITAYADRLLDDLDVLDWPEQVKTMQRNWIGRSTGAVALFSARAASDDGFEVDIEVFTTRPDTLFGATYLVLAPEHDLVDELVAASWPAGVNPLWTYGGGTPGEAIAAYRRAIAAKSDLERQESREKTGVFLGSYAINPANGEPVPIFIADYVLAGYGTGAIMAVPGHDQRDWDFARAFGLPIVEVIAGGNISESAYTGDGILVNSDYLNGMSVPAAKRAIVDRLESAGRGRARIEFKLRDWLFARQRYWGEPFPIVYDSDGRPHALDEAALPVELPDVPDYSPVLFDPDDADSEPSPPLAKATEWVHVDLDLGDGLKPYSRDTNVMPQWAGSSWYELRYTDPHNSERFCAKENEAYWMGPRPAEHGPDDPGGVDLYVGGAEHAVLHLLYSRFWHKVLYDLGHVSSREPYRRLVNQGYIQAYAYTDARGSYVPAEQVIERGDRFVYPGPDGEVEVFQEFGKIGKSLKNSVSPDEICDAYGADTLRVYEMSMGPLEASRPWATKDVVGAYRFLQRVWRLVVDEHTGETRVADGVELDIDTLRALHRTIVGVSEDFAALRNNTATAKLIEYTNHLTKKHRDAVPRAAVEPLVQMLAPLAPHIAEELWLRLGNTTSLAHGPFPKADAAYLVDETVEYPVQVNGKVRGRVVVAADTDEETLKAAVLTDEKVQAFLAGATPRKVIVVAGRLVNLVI
Protocol: For biochemical analyses an N-terminal six histidine-tagged LeuRS was over-expressed in Escherichia coli which were E. coli codon-optimised (GenScript, Piscataway N.J., USA), from human mitochondria and cytoplasm, and M. tuberculosis. N-terminal six histidine-tagged LeuRS proteins were over-expressed and purified according to Novagen (Madison, Wis., USA) using an E. coli BL21(DE3) T7 RNA polymerase over-expression strain.
Experiments were performed in 96-well microtiter plates, using 80 μL reaction mixtures containing 50 mM HEPES-KOH (pH 8.0), 30 mM MgCl2 30 mM KCl, 13 μM L-[^14C]leucine (306 mCi/mmol, Perkin-Elmer), 15 uM total E. coli tRNA (Roche, Switzerland), 0.02% (w/v) BSA, 1 mM DTT, 0.2 μM LeuRS and 4 mM ATP at 30° C. Reactions were started by the addition of 4 mM ATP. After 7 minutes, reactions were quenched and tRNA was precipitated by the addition of 50 μL of 10% (w/v) TCA and transferred to 96-well nitrocellulose membrane filter plates (Millipore Multiscreen HTS, MSHAN4B50). Each well was then washed three times with 100 μL of 5% TCA. Filter plates were then dried under a heat lamp and the precipitated L-[^14C]leucine tRNALeu were quantified by liquid scintillation counting using a Wallac MicroBeta Trilux model 1450 liquid scintillation counter (PerkinElmer, Waltham, Mass., USA). The only difference was with the human cytoplasmic LeuRS when we used tRNA isolated from Brewer's Yeast (Roche Diagnostics GmbH).
Reactions were initiated by the addition of 4 mM ATP. Reactions were stopped after 7 minutes then precipitated and counted to quantify radioactivity. IC50 values were determined using the Graphpad Prism software package (Graphpad Software Inc. (La Jolla, Calif., USA).

E. coli K12 tolC::Tn10 = experiment: General antimicrobial activity assay (CLSI broth microdilution); format: cell-based; conditions: Escherichia coli, read-out: MIC: E. coli K12 tolC::Tn10
Protocol: (§1) Whole-cell antimicrobial activity was determined by broth microdilution using the Clinical and Laboratory Standards Institute (CLSI) recommended procedure, Document M7-A7, “Methods for Dilution Susceptibility Tests for Bacteria that Grow Aerobically”.

E. coli K12 = experiment: as above; format: cell-based
Protocol: as §1

A. baumannii ATCC 17978 = experiment: as above; format: cell-based
Protocol: as §1

P. aeruginosa PA01 = experiment: as above; format: cell-based
Protocol: as §1

[2] = tested on: M. tuberculosis clinical isolates; experiment: MIC against clinical strains (BACTEC MGIT 960 System); format: cell-based; conditions: Mycobacterium tuberculosis, nearly all of the clinical isolate strains of Tables 2A-2D
[3] = Homo sapiens, HepG2, 48 h; read-out: HepG2 cell 48 h Tox50 (A)
[4] = listed as EXAMPLE 4 G4-Cl, hydrochloride
[5] = Homo sapiens, HepG2, 48 h, read-out: HepG2 cell 48 h Tox50 (A)
[6] = Escherichia coli, K12, read-out: MIC: E. coli K12
[7] = Acinetobacter baumannii, ATCC17978, read-out: MIC: A. baumannii ATCC 17978
[8] = Pseudomonas aeruginosa, PA01, read-out: MIC: P. aeruginosa PA01
[9] = Escherichia coli, K12; read-out: MIC: E. coli K12
[10] = Acinetobacter baumannii, ATCC17978; read-out: MIC: A. baumannii ATCC 17978
[11] = Pseudomonas aeruginosa, PA01; read-out: MIC: P. aeruginosa PA01

Structure (SMILES) | IC50 (Human cyto LeuRS) | IC50 (Human mito LeuRS) | IC50 (Mtb LeuRS; read-out: Mtb LeuRS IC50) | MIC [1] | IC50 (HepG2 cells; [5]) | MIC (E. coli K12 tolC::Tn10) | MIC (E. coli K12; [6]) | MIC (A. baumannii ATCC 17978; [7]) | MIC (P. aeruginosa PA01; [8]) | other results
CCOc1cccc2c1B(O)O[C@@H]2CN [Example C5-H, reference compound] | 25.6 µM | > 300 µM | 0.111 µM |  |  |  |  |  |  | Selectivity Index (A/B) [1]: 5; IC50 (HepG2 cells; [3]): 1.8 µM
Cl.NC[C@H]1OB2OCCOc3ccc(Cl)c1c32 [Example 4, (S)-(3-chloro-7,8-dihydro-2H-1,6,9-trioxa-9a-borabenzo[cd]azulen-2-yl)methanamine hydrochloride] | 94.7 µM | > 300 µM | 0.148 µM | < 0.1 µM | > 1000 µM | 64 µg/mL | 64 µg/mL | 64 µg/mL | 64 µg/mL | Selectivity Index (A/B) [1, 4]: >12500; Selectivity Index (A/B) ([1]; listed as Example 4 G4-CI, hydrochloride): > 12,500; Mtb H37Rv MIC (B) [1, 4]: 0.08 µM; IC50 (Mtb LeuRS; said to be sub-micromolar, read-out: IC50 values against M. tuberculosis): 0.1 µM
CC1(C)COc2ccc(Br)c3c2B(OC3CN)O1.Cl (stereo not shown) [Example 9, (3-bromo-8,8-dimethyl-7,8-dihydro-2H-1,6,9-trioxa-9a-borabenzo[cd]azulen-2-yl)methanamine hydrochloride] | > 300 µM |  | 1.25 µM | 0.3 µM | > 50 µM | > 64 µg/mL | > 64 µg/mL | > 64 µg/mL | > 64 µg/mL | Selectivity Index (A/B) ([1]; listed as EXAMPLE 9 G9-Br, hydrochloride): >167; Selectivity Index (A/B) ([1]; listed as Example 9 G9-Br, hydrochloride): > 167
NC[C@H]1OB2OCCOc3ccc(Cl)c1c32 [Example G4-CI] |  |  |  |  |  |  |  |  |  | MIC [2]: < 0.1 µM
CCOc1ccc(Cl)c2c1B(O)O[C@@H]2CN [Example C6-Cl, reference compound] |  | > 300 µM |  |  |  | 64 µg/mL (≈ 265 µM) |  |  |  | IC50 (HepG2 cells; [3]): 36.3 µM; MIC (E. coli K12; [9]): 64 µg/mL (≈ 265 µM); MIC (A. baumannii ATCC 17978; [10]): 64 µg/mL (≈ 265 µM); MIC (P. aeruginosa PA01; [11]): 64 µg/mL (≈ 265 µM); IC50 (Mtb LeuRS; Mtb LeuRS IC50): 0.05 µM
CC1(C)COc2ccc(Cl)c3c2B(O[C@@H]3CN)O1.Cl [Example 12, (S)-(3-chloro-8,8-dimethyl-7,8-dihydro-2H-1,6,9-trioxa-9a-borabenzo[cd]azulen-2-yl)methanamine hydrochloride] | > 300 µM |  | 0.78 µM | 0.08 µM | 322 µM | > 64 µg/mL | > 64 µg/mL | > 64 µg/mL | > 64 µg/mL | 
CCOc1ccc(Br)c2c1B(O)O[C@@H]2CN [Example C4-Br, reference compound] | 31 µM | > 300 µM |  |  |  | 64 µg/mL (≈ 224 µM) |  |  |  | IC50 (HepG2 cells; [3]): 32 µM; MIC (E. coli K12; [9]): 64 µg/mL (≈ 224 µM); MIC (A. baumannii ATCC 17978; [10]): 64 µg/mL (≈ 224 µM); MIC (P. aeruginosa PA01; [11]): 64 µg/mL (≈ 224 µM); IC50 (Mtb LeuRS; Mtb LeuRS IC50): 0.07 µM
CC1(C)COc2ccc(Br)c3c2B(O[C@@H]3CN)O1.Cl [Example 10, (S)-(3-bromo-8,8-dimethyl-7,8-dihydro-2H-1,6,9-trioxa-9a-borabenzo[cd]azulen-2-yl)methanamine hydrochloride] | > 300 µM |  | 1.13 µM | 0.16 µM | 460 µM | > 64 µg/mL | > 64 µg/mL | > 64 µg/mL | > 64 µg/mL | 
CC1COc2ccc(Cl)c3c2B(O1)OC3CN.Cl (stereo not shown) [Example 7, (3-chloro-8-methyl-7,8-dihydro-2H-1,6,9-trioxa-9a-borabenzo[cd]azulen-2-yl)methanamine hydrochloride] | > 300 µM |  | 1.08 µM | 0.2 µM | > 50 µM | > 64 µg/mL | > 64 µg/mL | > 64 µg/mL | > 64 µg/mL | Selectivity Index (A/B) [1]: >250
CC1(C)COc2ccc(Cl)c3c2B(OC3CN)O1.Cl (stereo not shown) [Example 11, (3-chloro-8,8-dimethyl-7,8-dihydro-2H-1,6,9-trioxa-9a-borabenzo[cd]azulen-2-yl)methanamine hydrochloride] | > 300 µM |  | 0.68 µM | 0.27 µM | > 50 µM | > 64 µg/mL | > 64 µg/mL | > 64 µg/mL | > 64 µg/mL | Selectivity Index (A/B) ([1]; listed as EXAMPLE 11 G11-Cl, hydrochloride): >185; Selectivity Index (A/B) ([1]; listed as Example 11 G11-CI, hydrochloride): > 185
NCC1OB2OCCOc3cccc1c32 (racemic) [Example C2-H, reference compound] | 272 µM | > 300 µM | 0.506 µM |  | > 50 µM | 4 µg/mL (≈ 19.5 µM) | 2 µg/mL (≈ 9.76 µM) | 2 µg/mL (≈ 9.76 µM) | 2 µg/mL (≈ 9.76 µM) | Selectivity Index (A/B) [1]: >26
